# Measurements from patent publication US7192906B2, “Substituted pyrazole derivatives, production process thereof, and herbicide compositions containing the derivatives” (SDS Biotech K.K., priority 2001, dated 2007).
# Key:
# Assay type in all cases: in vivo
# Chenopodium album [1] = assay: Test Example 1 upland field foliage treatment; details: Table 4, upland field foliage treatment, index 0-5
# Summary of the method: (§1)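 A leaf-surface application at an active-ingredient rate of 1 kg per hectare was made to 14-day-old plants in upland soil. Evaluation followed 21 days later using a six-grade scale, where grade 5 means at least 90% kill or phytotoxicity.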
# Digitaria adscendens [2] = assay: Test Example 1 upland field foliage treatment; details: Table 4, upland field foliage treatment, index 0-5
# Summary of the method: as §1
# Setaria viridis [3] = assay: Test Example 1 upland field foliage treatment; details: Table 4, upland field foliage treatment, index 0-5
# Summary of the method: as §1
# Stellaria media [4] = assay: Test Example 1 upland field foliage treatment; details: Table 4, upland field foliage treatment, index 0-5
# Summary of the method: as §1
# soybean (Glycine max) [5] = assay: Test Example 1 upland field foliage treatment, crop phytotoxicity; details: Table 4, upland field foliage treatment, index 0-5
# Summary of the method: as §1
# [6] = system: wheat (Triticum aestivum); assay: as above; details: Table 4, upland field foliage treatment, index 0-5
# Summary of the method: as §1
# Chenopodium album [7] = assay: Test Example 2 upland soil treatment; details: Table 5, upland soil treatment, index 0-5
# Summary of the method: (§2)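 Dose of 1 kg active ingredient per hectare, given as diluted wettable powder to the soil surface the day after sowing in upland soil (~1 cm cover). Effect rated 21 days on: 5 for ≥90%, 4 for 70–<90%, down to 0 for <10%.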
# Digitaria adscendens [8] = assay: Test Example 2 upland soil treatment; details: Table 5, upland soil treatment, index 0-5
# Summary of the method: as §2
# Setaria viridis [9] = assay: Test Example 2 upland soil treatment; details: Table 5, upland soil treatment, index 0-5
# Summary of the method: as §2
# Stellaria media [10] = assay: Test Example 2 upland soil treatment; details: Table 5, upland soil treatment, index 0-5
# Summary of the method: as §2
# soybean (Glycine max) [11] = assay: Test Example 2 upland soil treatment, crop phytotoxicity; details: Table 5, upland soil treatment, index 0-5
# Summary of the method: as §2
# [12] = system: wheat (Triticum aestivum); assay: as above; details: Table 5, upland soil treatment, index 0-5
# Summary of the method: as §2
# Ammannia multiflora = assay: Test Example 3 paddy field treatment; details: Table 6, paddy field treatment, active ingredient 1 kg per hectare, 21st day after dropping, index 0-5
# Summary of the method: (§3)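 Scoring used a 0–5 scale of herbicidal effect or phytotoxicity, from <10% to ≥90%, taken 21 days after treatment. Treatment was 1 kg a.i./ha as diluted wettable powder dripped onto 4 cm-deep flooded pots sown with the weeds, 10 days after transplanting two-leaf Koshihikari rice.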
# Echinochloa crusgalli = assay: Test Example 3 paddy field treatment; details: Table 6, paddy field treatment, active ingredient 1 kg per hectare, 21st day after dropping, index 0-5
# Summary of the method: as §3
# Monochoria vaginalis = assay: Test Example 3 paddy field treatment; details: Table 6, paddy field treatment, active ingredient 1 kg per hectare, 21st day after dropping, index 0-5
# Summary of the method: as §3
# Scirpus juncoides = assay: Test Example 3 paddy field treatment; details: Table 6, paddy field treatment, active ingredient 1 kg per hectare, 21st day after dropping, index 0-5
# Summary of the method: as §3
# Rice (Oryza sativa) = assay: Test Example 3 paddy field treatment, crop phytotoxicity; details: Table 6, paddy field treatment, transplanted rice, active ingredient 1 kg per hectare, 21st day after dropping, index 0-5
# Summary of the method: as §3
Structure (SMILES),Herbicidal activity CA: Chenopodium album (Chenopodium album [1]),Herbicidal activity DA: Digitaria adscendens (Digitaria adscendens [2]),Herbicidal activity SV: Setaria viridis (Setaria viridis [3]),Herbicidal activity SM: Stellaria media (Stellaria media [4]),Herbicidal activity (phytotoxicity) GM: Soybean (Glycine max) (soybean (Glycine max) [5]),Herbicidal activity (phytotoxicity) TA: Wheat (Triticum aestivum) [6],Herbicidal activity CA: Chenopodium album (Chenopodium album [7]),Herbicidal activity DA: Digitaria adscendens (Digitaria adscendens [8]),Herbicidal activity SV: Setaria viridis (Setaria viridis [9]),Herbicidal activity SM: Stellaria media (Stellaria media [10]),Herbicidal activity (phytotoxicity) GM: Soybean (Glycine max) (soybean (Glycine max) [11]),Herbicidal activity (phytotoxicity) TA: Wheat (Triticum aestivum) [12],Herbicidal activity AM (Ammannia multiflora),Herbicidal activity EC (Echinochloa crusgalli),Herbicidal activity MV (Monochoria vaginalis),Herbicidal activity SJ (Scirpus juncoides),Herbicidal activity (phytotoxicity) OS (Rice (Oryza sativa))
CNC(=O)C(Cn1cc(C)c(-c2ccccc2)n1)=NOCF [Compound 103],"5 (herbicidal effect of not less than 90%, or phytotoxicity of 90% or more)","4 (herbicidal effect of not less than 70% and less than 90%, or phytotoxicity of 70% or more and less than 90%)","3 (herbicidal effect of not less than 50% and less than 70%, or phytotoxicity of 50% or more and less than 70%)","5 (herbicidal effect of not less than 90%, or phytotoxicity of 90% or more)","0 (herbicidal effect of not less than 0% and less than 10%, or phytotoxicity of 0% or more and less than 10%)","0 (herbicidal effect of not less than 0% and less than 10%, or phytotoxicity of 0% or more and less than 10%)","5 (herbicidal effect of not less than 90%, or phytotoxicity of 90% or more)","5 (herbicidal effect of not less than 90%, or phytotoxicity of 90% or more)","4 (herbicidal effect of not less than 70% and less than 90%, or phytotoxicity of 70% or more and less than 90%)","5 (herbicidal effect of not less than 90%, or phytotoxicity of 90% or more)","0 (herbicidal effect of not less than 0% and less than 10%, or phytotoxicity of 0% or more and less than 10%)","0 (herbicidal effect of not less than 0% and less than 10%, or phytotoxicity of 0% or more and less than 10%)","5 (herbicidal effect of not less than 90%, or phytotoxicity of 90% or more)","5 (herbicidal effect of not less than 90%, or phytotoxicity of 90% or more)","5 (herbicidal effect of not less than 90%, or phytotoxicity of 90% or more)","5 (herbicidal effect of not less than 90%, or phytotoxicity of 90% or more)","0 (herbicidal effect of not less than 0% and less than 10%, or phytotoxicity of 0% or more and less than 10%)"
C=CCON=C(Cn1cc(C)c(-c2ccccc2)n1)C(=O)NC [Compound 105],"5 (herbicidal effect of not less than 90%, or phytotoxicity of 90% or more)","5 (herbicidal effect of not less than 90%, or phytotoxicity of 90% or more)","5 (herbicidal effect of not less than 90%, or phytotoxicity of 90% or more)","5 (herbicidal effect of not less than 90%, or phytotoxicity of 90% or more)","0 (herbicidal effect of not less than 0% and less than 10%, or phytotoxicity of 0% or more and less than 10%)","0 (herbicidal effect of not less than 0% and less than 10%, or phytotoxicity of 0% or more and less than 10%)","4 (herbicidal effect of not less than 70% and less than 90%, or phytotoxicity of 70% or more and less than 90%)","4 (herbicidal effect of not less than 70% and less than 90%, or phytotoxicity of 70% or more and less than 90%)","4 (herbicidal effect of not less than 70% and less than 90%, or phytotoxicity of 70% or more and less than 90%)","4 (herbicidal effect of not less than 70% and less than 90%, or phytotoxicity of 70% or more and less than 90%)","0 (herbicidal effect of not less than 0% and less than 10%, or phytotoxicity of 0% or more and less than 10%)","0 (herbicidal effect of not less than 0% and less than 10%, or phytotoxicity of 0% or more and less than 10%)","5 (herbicidal effect of not less than 90%, or phytotoxicity of 90% or more)","4 (herbicidal effect of not less than 70% and less than 90%, or phytotoxicity of 70% or more and less than 90%)","5 (herbicidal effect of not less than 90%, or phytotoxicity of 90% or more)","4 (herbicidal effect of not less than 70% and less than 90%, or phytotoxicity of 70% or more and less than 90%)","0 (herbicidal effect of not less than 0% and less than 10%, or phytotoxicity of 0% or more and less than 10%)"
CNC(=O)C(Cn1cc(C)c(-c2ccc(C=NOC)cc2)n1)=NOC [Compound 111],"5 (herbicidal effect of not less than 90%, or phytotoxicity of 90% or more)","4 (herbicidal effect of not less than 70% and less than 90%, or phytotoxicity of 70% or more and less than 90%)","4 (herbicidal effect of not less than 70% and less than 90%, or phytotoxicity of 70% or more and less than 90%)","5 (herbicidal effect of not less than 90%, or phytotoxicity of 90% or more)","0 (herbicidal effect of not less than 0% and less than 10%, or phytotoxicity of 0% or more and less than 10%)","0 (herbicidal effect of not less than 0% and less than 10%, or phytotoxicity of 0% or more and less than 10%)","5 (herbicidal effect of not less than 90%, or phytotoxicity of 90% or more)","4 (herbicidal effect of not less than 70% and less than 90%, or phytotoxicity of 70% or more and less than 90%)","4 (herbicidal effect of not less than 70% and less than 90%, or phytotoxicity of 70% or more and less than 90%)","5 (herbicidal effect of not less than 90%, or phytotoxicity of 90% or more)","0 (herbicidal effect of not less than 0% and less than 10%, or phytotoxicity of 0% or more and less than 10%)","0 (herbicidal effect of not less than 0% and less than 10%, or phytotoxicity of 0% or more and less than 10%)","5 (herbicidal effect of not less than 90%, or phytotoxicity of 90% or more)","5 (herbicidal effect of not less than 90%, or phytotoxicity of 90% or more)","5 (herbicidal effect of not less than 90%, or phytotoxicity of 90% or more)","5 (herbicidal effect of not less than 90%, or phytotoxicity of 90% or more)","0 (herbicidal effect of not less than 0% and less than 10%, or phytotoxicity of 0% or more and less than 10%)"
CON=C(Cn1cc(C)c(-c2ccccc2)n1)C(=O)N1CCCC1 [Compound 118],"4 (herbicidal effect of not less than 70% and less than 90%, or phytotoxicity of 70% or more and less than 90%)","4 (herbicidal effect of not less than 70% and less than 90%, or phytotoxicity of 70% or more and less than 90%)","3 (herbicidal effect of not less than 50% and less than 70%, or phytotoxicity of 50% or more and less than 70%)","5 (herbicidal effect of not less than 90%, or phytotoxicity of 90% or more)","0 (herbicidal effect of not less than 0% and less than 10%, or phytotoxicity of 0% or more and less than 10%)","0 (herbicidal effect of not less than 0% and less than 10%, or phytotoxicity of 0% or more and less than 10%)","4 (herbicidal effect of not less than 70% and less than 90%, or phytotoxicity of 70% or more and less than 90%)","3 (herbicidal effect of not less than 50% and less than 70%, or phytotoxicity of 50% or more and less than 70%)","3 (herbicidal effect of not less than 50% and less than 70%, or phytotoxicity of 50% or more and less than 70%)","4 (herbicidal effect of not less than 70% and less than 90%, or phytotoxicity of 70% or more and less than 90%)","0 (herbicidal effect of not less than 0% and less than 10%, or phytotoxicity of 0% or more and less than 10%)","0 (herbicidal effect of not less than 0% and less than 10%, or phytotoxicity of 0% or more and less than 10%)","4 (herbicidal effect of not less than 70% and less than 90%, or phytotoxicity of 70% or more and less than 90%)","3 (herbicidal effect of not less than 50% and less than 70%, or phytotoxicity of 50% or more and less than 70%)","4 (herbicidal effect of not less than 70% and less than 90%, or phytotoxicity of 70% or more and less than 90%)","4 (herbicidal effect of not less than 70% and less than 90%, or phytotoxicity of 70% or more and less than 90%)","0 (herbicidal effect of not less than 0% and less than 10%, or phytotoxicity of 0% or more and less than 10%)"
